From patent publication US8592421B2, “Cyclic bioisosters of purine system derivatives and a pharmaceutical composition based thereon” (priority 2003, dated 2013)
Marks after values point to notes of the source that are not given here.

Tests used:
plasma hemostasis = test: Thrombin time after intravenous administration; format: in vivo, rabbit
Protocol: The investigations were performed on 72 rabbits of the “Chinchilla” breed with a mass of 2.5±0.3 kg, who were administered which solutions of compounds 2, 15, 21, 37 in doses of 15, 30 and 60 mg/kg intravenously. The experiments included the thrombin-test (series No. 7300) and the coagulability-test (series No. 5000) purchased from the scientific-and-production association (SPA) “Renam”, thromboplastin (series No. 240600) and calcium chloride purchased from the SPA “MedioLab”
The static parameters of the blood and plasma coagulation (partial activated thromboplastin time, thrombin time, maximum coagulation activity (test for auto coagulation) were determined using the Behnk Electronic coagulometer (Germany). The operating principle of this instrument is based on the fact that the formed blood clot breaks the contacts of the pulse counter in the flask-pin circuit, said pin permanently oscillating in a vertical plane. The moment of formation of the clot is registered by stopping the stop watch hand.
The measurements were effected at a constant temperature of 37° C. maintained by a temperature control unit.
The “thrombin time” characterizes the rate of transformation of fibrinogen into fibrin. It was determined by measuring the coagulation time of plasma deprived of thrombocytes under the effect of thrombin standardized by the control plasma.
0.2 ml of a thrombin solution was added to 0.2 ml of the test blood plasma of experimental animals, from whom the blood was taken 15, 30, 60 and 120 minutes after the intravenous administration of compounds 2, 15, 21, 37 according to the invention in doses of 15, 30, 60 mg/kg incubated for 1 minute at a temperature of 37° C. and the time of formation of clot T2 in seconds in a coagulometer of the Behnk Electronic Company (Germany).

[1] = system: embryonic fibroblasts of mouse NIH-3T3; test: Effect on endocellular pHi of fibroblasts (microspectrofluorimetry with FDA / BCECF-AM); format: cell-based; conditions: for rise of pHi: fibroblasts in an attached spread state; for change of pHi: medium DME without blood serum, 20 minutes; for increase of pHi of cytosol: medium with 10.0% blood serum, 20 minutes after addition
Protocol: The effect of the compounds according to the invention on the endocellular pH, embryonic fibroblasts of mouse NIH-3T3 supplied by the All-Russian Collection of Cellular Cultures of the Institute of Cytology of the Russian Academy of Sciences St. Petersburg was investigated. The cells were grown in the DMEM (Sigma) medium containing 2.2 g/l of sodium bicarbonate with addition of 80.0 mkg/ml of gentamicin and 10.0% embryonal veal serum at a temperature of 37° C. in an atmosphere containing 5.0% of carbon dioxide. For these experiments use was also made of a medium buffer with 5.0 mM of HEPES and 15.0 mM of sodium bicarbonate without serum or with addition of 5.0% serum. The cells were calculated with the help of a hemocytometer. A share of the dead cells was determined by colouring trypan blue.
The measurements of the endocellular pHi were carried out with the help of colorants FDA (Sigma) and BCECF-AM (Calbiochem) on a microspectrofluorimeter by a standard technique (Koshevoy Yu. V., Akatov V. S., Grobova M. E. Microspectrofluorimeter for measuring endocellular pH (micro pH)”. Devices and equipment for studies in the field of physical-and-chemical biology and biotechnology. Pushchino, 1990. P. 8-14).
The cells at a temperature of 37° C. were colored within 5 minutes with 5.0 mkM PDA that before the colouring was prepared from a 10.0 mM solution in acetone by dilution for 30 minutes in a phosphatic buffer to 0.1 mM or 2.0 mkM 1.0 mM solution BCECF-AM in DMSO.
The two-wave method of determining pHi was used based on the ratio intensities of fluorescence of the cells on two wavelengths (Akatov V. S. et all), “Endocellular pH and substrate dependence of proliferation of fibroblasts of Chinese hamster, Cytology, 1991, 33 (7), p. 86-94). The fluorescence was excited by light at λ=490 nm, the emission was recorded simultaneously with two photomultipliers on wavelengths λ=535 nm and λ=570 nm. The K-ratio of the fluorescence on two wavelengths was determined with a deduction of the background fluorescence of the medium near the investigated cells for 40-60 individual cells, which are then averaged taking into account the measurement error. A thermostatically controlled table was used that allowed measurements to be conducted at a temperature of 37° C. An account was taken for the photodynamic damage of the pigmented cells during long-time continuous illumination by excited light. The readings were taken from a section of the preparation exposed to light for not more than 5 minutes.
The calibration curves for determining the absolute pHi values by magnitude K were constructed using the Thomas technique (Thomas J. A., Bushbaum R. N., Zimniak A. w Racker E. “Intracellular pH measurements in Ehrlich ascites tumor cells utilizing spectroscopic probe generated in situ”, Biochemistry, 1979, v. 18, p. 2210-2218), for which case the pigmented cells treated for 5-10 minutes with carboxyacidic nigericyn (Calbiochem) at a concentration of 5-10 mkg/ml was placed in a solution with a high content of potassium—130 mM KCl, 1.0 mM MgCl2, 20.0 mM of HEPES) and with pH values from 6.2 to 7.6. The K values were measured in the media with different pH assuming that pHi of the cells equals to the pH of the medium due to the action of nigericyn, which exchanges potassium ions for protons and at a high content of potassium in the medium counterbalances the pH of the medium and cells. Calibration curves were used based on the fluorescence of same medium with addition of 5.0 mkM of fluorescence or BCECF were used to the control the stability of the of the instrument readings.
The cells were colored by pigment BCECF-AM and pHi was measured 10 minutes after incubation in the medium with an appropriate pH value. […]

[2] = 15.0 mg/kg intravenously, after 15 minutes, control 15.8
[3] = 15.0 mg/kg intravenously, after 30 minutes, control 15.8
[4] = 15.0 mg/kg intravenously, after 60 minutes, control 15.8
[5] = 15.0 mg/kg intravenously, after 120 minutes, control 15.8
[6] = 30.0 mg/kg intravenously, after 15 minutes, control 14.7
[7] = 30.0 mg/kg intravenously, after 30 minutes, control 14.7
[8] = 30.0 mg/kg intravenously, after 60 minutes, control 14.7
[9] = 30.0 mg/kg intravenously, after 120 minutes, control 14.7
[10] = 60.0 mg/kg intravenously, after 15 minutes, control 15.2
[11] = 60.0 mg/kg intravenously, after 30 minutes, control 15.2
[12] = 60.0 mg/kg intravenously, after 60 minutes, control 15.2
[13] = 60.0 mg/kg intravenously, after 120 minutes, control 15.2

Nc1cccc2c(=O)[nH][nH]c(=O)c12.[Na] [Compound 15, sodium salt of 5-amino-benzo[d]-3H-pyridazine-1,4-dione]
thrombin time, T2 (plasma hemostasis; [2]): 17.0* s | thrombin time, T2 (plasma hemostasis; [3]): 18.5* s | thrombin time, T2 (plasma hemostasis; [4]): 16.5* s | thrombin time, T2 (plasma hemostasis; [5]): 15.5* s | thrombin time, T2 (plasma hemostasis; [6]): 19.7* s | thrombin time, T2 (plasma hemostasis; [7]): 20.5* s | thrombin time, T2 (plasma hemostasis; [8]): 21.3* s | thrombin time, T2 (plasma hemostasis; [9]): 15.0* s | thrombin time, T2 (plasma hemostasis; [10]): 16.8* s | thrombin time, T2 (plasma hemostasis; [11]): 18.0* s | thrombin time, T2 (plasma hemostasis; [12]): 16.5* s | thrombin time, T2 (plasma hemostasis; [13]): 14.7* s | rise of pHi ([1]; 2.0 mkg/ml, on the average): 0.10 unit pHi | rise of pHi ([1]; 20.0 mkg/ml, on the average): 0.07 unit pHi | change of pHi ([1]; 0.02 mkg/ml): no effect was found | change of pHi ([1]; 0.2 mkg/ml): no effect was found | change of pHi ([1]; 2.0 mkg/ml, on the average): 0.08 unit pHi | change of pHi ([1]; 20.0 mkg/ml, on the average): 0.08 unit pHi | change of pHi ([1]; 200 mkg/ml): no effect was found | change of pHi ([1]; 1000 mkg/ml): no effect was found | increase of pHi of cytosol ([1]; 0.02 mkg/ml): do not initiate a change of pH | increase of pHi of cytosol ([1]; 0.2 mkg/ml, on the average): 0.1 unit pH | increase of pHi of cytosol ([1]; 2.0 mkg/ml, on the average): 0.12 unit pH | increase of pHi of cytosol ([1]; 20.0 mkg/ml): do not initiate a change of pH

Nc1ccnc2c(=O)n([C@@H]3O[C@H](CO)[C@@H](O)[C@H]3O)[nH]c(=O)c12 [Compound 2, 4-amino-7-(β-D-ribofuranosile)pyrido[2,3-d]-6H-pyridazine-5,8-dione]
thrombin time, T2 (plasma hemostasis; [2]): 16.2* s | thrombin time, T2 (plasma hemostasis; [3]): 17.0* s | thrombin time, T2 (plasma hemostasis; [4]): 16.0* s | thrombin time, T2 (plasma hemostasis; [5]): 15.3* s | thrombin time, T2 (plasma hemostasis; [6]): 17.8* s | thrombin time, T2 (plasma hemostasis; [7]): 18.4* s | thrombin time, T2 (plasma hemostasis; [8]): 19.2* s | thrombin time, T2 (plasma hemostasis; [9]): 15.3* s | thrombin time, T2 (plasma hemostasis; [10]): 16.0* s | thrombin time, T2 (plasma hemostasis; [11]): 16.9* s | thrombin time, T2 (plasma hemostasis; [12]): 15.9* s | thrombin time, T2 (plasma hemostasis; [13]): 15.3* s

Nc1ncc2c(=O)[nH][nH]c(=O)c2n1 [Compound 36, 2-amino-pyrimido[4,5-d]-6H-pyridazine-5,8-dione]
rise of pHi ([1]; 2.0 mkg/ml, on the average): 0.10 unit pHi | rise of pHi ([1]; 20.0 mkg/ml, on the average): 0.07 unit pHi | change of pHi ([1]; 0.02 mkg/ml): no effect was found | change of pHi ([1]; 0.2 mkg/ml): no effect was found | change of pHi ([1]; 2.0 mkg/ml, on the average): 0.08 unit pHi | change of pHi ([1]; 20.0 mkg/ml, on the average): 0.08 unit pHi | change of pHi ([1]; 200 mkg/ml): no effect was found | change of pHi ([1]; 1000 mkg/ml): no effect was found | increase of pHi of cytosol ([1]; 0.02 mkg/ml): do not initiate a change of pH | increase of pHi of cytosol ([1]; 0.2 mkg/ml, on the average): 0.1 unit pH | increase of pHi of cytosol ([1]; 2.0 mkg/ml, on the average): 0.12 unit pH | increase of pHi of cytosol ([1]; 20.0 mkg/ml): do not initiate a change of pH

O=c1[nH][nH]c(=O)c2c(Br)ncnc12.[K] [Compound 37, potassium salt of 4-bromine-pyrimido[4,5-D]-6H-pyridazine-5,8-dione]
thrombin time, T2 (plasma hemostasis; [2]): 16.9* s | thrombin time, T2 (plasma hemostasis; [3]): 18.2* s | thrombin time, T2 (plasma hemostasis; [4]): 16.3* s | thrombin time, T2 (plasma hemostasis; [5]): 15.6* s | thrombin time, T2 (plasma hemostasis; [6]): 19.5* s | thrombin time, T2 (plasma hemostasis; [7]): 20.3* s | thrombin time, T2 (plasma hemostasis; [8]): 21.0* s | thrombin time, T2 (plasma hemostasis; [9]): 15.2* s | thrombin time, T2 (plasma hemostasis; [10]): 16.6* s | thrombin time, T2 (plasma hemostasis; [11]): 17.8* s | thrombin time, T2 (plasma hemostasis; [12]): 16.2* s | thrombin time, T2 (plasma hemostasis; [13]): 15.0* s

Nc1cnc2c(=O)n([C@@H]3O[C@H](CO)[C@@H](O)[C@H]3O)[nH]c(=O)c2n1.[Na] [Compound 21, sodium salt of 3-amino-7-(β-D-ribofuranosile)pyrazine[2,3-d]-6H-pyridazine-5,8-dione]
thrombin time, T2 (plasma hemostasis; [2]): 16.4* s | thrombin time, T2 (plasma hemostasis; [3]): 17.7* s | thrombin time, T2 (plasma hemostasis; [4]): 16.1* s | thrombin time, T2 (plasma hemostasis; [5]): 15.7* s | thrombin time, T2 (plasma hemostasis; [6]): 17.9* s | thrombin time, T2 (plasma hemostasis; [7]): 18.8* s | thrombin time, T2 (plasma hemostasis; [8]): 19.0* s | thrombin time, T2 (plasma hemostasis; [9]): 15.6* s | thrombin time, T2 (plasma hemostasis; [10]): 16.2* s | thrombin time, T2 (plasma hemostasis; [11]): 17.7* s | thrombin time, T2 (plasma hemostasis; [12]): 16.3* s | thrombin time, T2 (plasma hemostasis; [13]): 15.7* s

O=c1[nH]n([C@@H]2O[C@H](CO)[C@@H](O)[C@H]2O)c(=O)c2nc(O)cnc12.[Na].[Na] [Compound 23, disodium salt of 2-hydroxy-7-(β-D-ribofuranosile)pyrazine[2,3—Cl]-6H-pyridazine-5,8-dione]
rise of pHi ([1]; 2.0 mkg/ml, on the average): 0.10 unit pHi | rise of pHi ([1]; 20.0 mkg/ml, on the average): 0.07 unit pHi | change of pHi ([1]; 0.02 mkg/ml): no effect was found | change of pHi ([1]; 0.2 mkg/ml): no effect was found | change of pHi ([1]; 2.0 mkg/ml, on the average): 0.08 unit pHi | change of pHi ([1]; 20.0 mkg/ml, on the average): 0.08 unit pHi | change of pHi ([1]; 200 mkg/ml): no effect was found | change of pHi ([1]; 1000 mkg/ml): no effect was found | increase of pHi of cytosol ([1]; 0.02 mkg/ml): do not initiate a change of pH | increase of pHi of cytosol ([1]; 0.2 mkg/ml, on the average): 0.1 unit pH | increase of pHi of cytosol ([1]; 2.0 mkg/ml, on the average): 0.12 unit pH | increase of pHi of cytosol ([1]; 20.0 mkg/ml): do not initiate a change of pH
